Experimental data: patent publication US20230146455A1, “TREATMENT OF INFLAMMATORY DISEASES WITH PEPTIDES AND PHARMACEUTICAL COMPOSITIONS” (Yuyu Pharma, Inc., priority 2020, published 2023)
“And” between values parts separate entries of the source, which are not always exact repeats. Equal entries are not always repeated. Where a SMILES comes first, the peptide text is derived from it. [ ]: non-standard residue; d: D form. Hyp = O=C(O)[C@@H]1C[C@@H](O)CN1

Experiments:
IL-6 = test: Example 8 main study Luminex, LPS hPBMCs: IL-6; format: cell-based, human; conditions: for IL-6 Concentration: single replicates (1st, 2nd, 3rd); for LPS-induced IL-6 (in words): at as low as 5 μM, LPS 5 ug/mL 24 hrs
Protocol: (§1) Human PBMCs were pretreated with YY-101, YDE-011, YDE-043 or reference compound; Xiidra® at various concentration (ranging from […] to 500 nM) for 2 h before stimulation. An equal volume of 0.5% DMSO was used as a vehicle control. Then, the cells were treated with LPS at 5 ug/ml, which was selected based on the pilot study. The supernatants from treated cells were harvested at 24 h and placed in a 96 well for Luminex cytokine & chemokine profiling using a Luminex 200 multiplex assay (Luminex; R&D system, USA).
(§2) The main study arm with triplicate wells per group in a 24-well plate: • 1. Blank • 2. PBMC: 0.5% DMSO • 3. PBMC+LPS (5 ug/ml) • 4. PBMC+YY-101 500 nM • 5. PBMC+YY-101 50 nM • 6. PBMC+YY-101 5 nM • 7. PBMC+YY-101 0.5 nM • 8. PBMC+LPS (5 ug/ml)+Xiidra® 500 nM • 9. PBMC+LPS (5 ug/ml)+Xiidra® 50 nM • 10. PBMC+LPS (5 ug/ml)+Xiidra® 5 nM • 11. PBMC+LPS (5 ug/ml)+Xiidra® 0.5 nM • 12. PBMC+LPS (5 ug/ml)+Xiidra® 0.05 nM • 13. PBMC+LPS (5 ug/ml)+Xiidra® 0.005 nM • 14. PBMC+LPS (5 ug/ml)+YY-101 500 nM • 15. PBMC+LPS (5 ug/ml)+YY-101 50 nM • 16. PBMC+LPS (5 ug/ml)+YY-101 5 nM • 17. PBMC+LPS (5 ug/ml)+YY-101 0.5 nM • 18. PBMC+LPS (5 ug/ml)+YY-101 0.05 nM • 19. PBMC+LPS (5 ug/ml)+YY-101 0.005 nM • 20. PBMC+LPS (5 ug/ml)+YDE-011 500 nM • 21. PBMC+LPS (5 ug/ml)+YDE-011 50 nM • 22. PBMC+LPS (5 ug/ml)+YDE-011 5 nM • 23. PBMC+LPS (5 ug/ml)+YDE-011 0.5 nM • 24. PBMC+LPS (5 ug/ml)+YDE-011 0.05 nM • 25. PBMC+LPS (5 ug/ml)+YDE-011 0.005 nM • 26. PBMC+LPS (5 ug/ml)+YDE-043 500 nM • 27. PBMC+LPS (5 ug/ml)+YDE-043 50 nM • 28. PBMC+LPS (5 ug/ml)+YDE-043 5 nM • 29. PBMC+LPS (5 ug/ml)+YDE-043 0.5 nM • 30. PBMC+LPS (5 ug/ml)+YDE-043 0.05 nM • 31. PBMC+LPS (5 ug/ml)+YDE-043 0.005 nM
(§3) Multiplex assay was used to measure 30 cytokines and chemokines. The 1:200 diluted cell supernatant and serial dilution of the standard were dispensed into a 96 well plate at 50 ul/well. Then, the pre-mixed cocktail of antibody-coated magnetic beads was dispensed at 50 ul/well and incubated at room temperature for 2 h in a horizontal orbital microplate shaker at 800±500 rpm. The beads were washed using a magnetic device to prevent loss. The biotin-antibody was dispensed in 50 ul of each well and incubated at room temperature for 1 h in a shaker at 800±500 rpm. After washing, streptavidin-PE was added at 50 ul/well and incubated at room temperature for 30 min in a shaker under the same conditions. Finally, after washing, wash buffer (100 ul/well) was added to the plate and incubated in a shaker for 2 min. The Luminex™ 200 setting were set according to the manufacturer's protocol. The data was calculated with a standard five-parameter logistic nonlinear regression analysis of the data (xPonent software 4.2, USA). Results were presented as concentration (ng/ml or pg/ml).

IL-2 = test: Example 8 main study Luminex, LPS hPBMCs: IL-2; format: cell-based, human; conditions: for IL-2 Concentration, individual wells / IL-2 MFI, individual wells / IL-2 MFI, Mean / IL-2 Concentration, Mean: 24 h; for IL-2 MFI, Mean: LPS alone Mean 80.5; for IL-2 Concentration, Mean: LPS alone Mean 3988.7; for LPS-induced IL-2 (in words): at as low as 5 μM, LPS 5 ug/mL 24 hrs
Protocol: as §1, §2, §3

[1] = PBMC + LPS(5 ug/ml) + test article 0.005 nM
[2] = PBMC + LPS(5 ug/ml) + test article 0.05 nM
[3] = PBMC + LPS(5 ug/ml) + test article 0.5 nM
[4] = PBMC + LPS(5 ug/ml) + test article 5 nM
[5] = PBMC + LPS(5 ug/ml) + test article 50 nM
[6] = PBMC + LPS(5 ug/ml) + test article 500 nM
[7] = PBMC + LPS(5 ug/ml) + compound 0.005 nM
[8] = PBMC + LPS(5 ug/ml) + compound 0.05 nM
[9] = PBMC + LPS(5 ug/ml) + compound 0.5 nM
[10] = PBMC + LPS(5 ug/ml) + compound 5 nM
[11] = PBMC + LPS(5 ug/ml) + compound 50 nM
[12] = PBMC + LPS(5 ug/ml) + compound 500 nM

Row | SMILES | IL-6 Concentration, Mean (IL-6; [1]) [pg/mL] | IL-6 Concentration (IL-6; [1]) | IL-6 Concentration, Mean (IL-6; [2]) [pg/mL] | IL-6 Concentration (IL-6; [2]) | IL-6 Concentration, Mean (IL-6; [3]) [pg/mL] | IL-6 Concentration (IL-6; [3]) | IL-6 Concentration, Mean (IL-6; [4]) [pg/mL] | IL-6 Concentration (IL-6; [4]) | IL-6 Concentration, Mean (IL-6; [5]) [pg/mL] | IL-6 Concentration (IL-6; [5]) | IL-6 Concentration, Mean (IL-6; [6]) [pg/mL] | IL-6 Concentration (IL-6; [6]) | LPS-induced IL-6 (in words) (IL-6) | IL-2 Concentration, individual wells (IL-2; [7]) | IL-2 MFI, individual wells (IL-2; [7]) | IL-2 MFI, Mean (IL-2; [7]) | IL-2 Concentration, Mean (IL-2; [7]) [pg/mL] | IL-2 Concentration, individual wells (IL-2; [8]) | IL-2 MFI, individual wells (IL-2; [8]) | IL-2 MFI, Mean (IL-2; [8]) | other results
1 | CC(C)C[C@H](NC(=O)CNC(=O)[C@H](CC(C)C)NC(=O)[C@H](CCC(N)=O)NC(=O)CNC(=O)[C@@H]1C[C@@H](O)CN1)C(=O)N[C@@H](C)C(=O)NCC(=O)N1CCC[C@H]1C(=O)N[C@@H](CCCCN)C(=O)O [YDE-011] (H-[Hyp]GQLGLAGPK-OH) | 16114.6 | 16843.8 pg/mL and 15250.9 pg/mL and 16249.2 pg/mL | 18589.3 | 18843.4 pg/mL and 18343.3 pg/mL and 18581.4 pg/mL | 15456.8 | 15322.2 pg/mL and 15654.9 pg/mL and 15393.5 pg/mL | 13541.9 | 12094.3 pg/mL and 12947.9 pg/mL and 15583.6 pg/mL | 14621.7 | 17248.3 pg/mL and 9892.0 pg/mL and 16724.9 pg/mL | 14568.3 | 19367.5 pg/mL and 9383.5 pg/mL and 14953.9 pg/mL | significantly reduced | 2239.1 pg/mL and 2082.5 pg/mL and 2707.7 pg/mL | 58.0 and 56.0 and 64.0 | 59.3 | 2343.1 | 2707.7 pg/mL and 2473.6 pg/mL and 2824.6 pg/mL | 64.0 and 61.0 and 65.5 | 63.5 | IL-2 Concentration, Mean (IL-2; [8]): 2668.6 pg/mL; IL-2 Concentration, individual wells (IL-2; [9]): 2239.1 pg/mL and 1925.7 pg/mL and 2200.0 pg/mL; IL-2 MFI, individual wells (IL-2; [9]): 58.0 and 54.0 and 57.5; IL-2 MFI, Mean (IL-2; [9]): 56.5; IL-2 Concentration, Mean (IL-2; [9]): 2121.6 pg/mL; IL-2 Concentration, individual wells (IL-2; [10]): 1532.6 pg/mL and 1611.3 pg/mL and 2551.7 pg/mL; IL-2 MFI, individual wells (IL-2; [10]): 49.0 and 50.0 and 62.0; IL-2 MFI, Mean (IL-2; [10]): 53.7; IL-2 Concentration, Mean (IL-2; [10]): 1898.5 pg/mL; IL-2 Concentration, individual wells (IL-2; [11]): 2160.8 pg/mL and 659.4 pg/mL and 2082.5 pg/mL; IL-2 MFI, individual wells (IL-2; [11]): 57.0 and 38.0 and 56.0; IL-2 MFI, Mean (IL-2; [11]): 50.3; IL-2 Concentration, Mean (IL-2; [11]): 1634.3 pg/mL; IL-2 Concentration, individual wells (IL-2; [12]): 2941.4 pg/mL and 579.2 pg/mL and 1729.4 pg/mL; IL-2 MFI, individual wells (IL-2; [12]): 67.0 and 37.0 and 51.5; IL-2 MFI, Mean (IL-2; [12]): 51.8; IL-2 Concentration, Mean (IL-2; [12]): 1750.0 pg/mL; LPS-induced IL-2 (in words) (IL-2): significantly reduced
2 | CC(C)C[C@H](NC(=O)[C@H](CCC(N)=O)NC(=O)CNC(=O)[C@@H]1C[C@@H](O)CN1)C(=O)NCC(=O)O [YDE-043] (H-[Hyp]GQLG-OH; N-terminus and C-terminus assumed) | 17678.1 | 15726.2 pg/mL and 16772.5 pg/mL and 20535.6 pg/mL | 14253.4 | 13386.9 pg/mL and 14716.3 pg/mL and 14657.0 pg/mL | 14811.5 | 15322.2 pg/mL and 15084.6 pg/mL and 14027.7 pg/mL | 16507.0 | 16380.0 pg/mL and 17224.5 pg/mL and 15916.4 pg/mL | 16067.3 | 16962.8 pg/mL and 16570.3 pg/mL and 14668.8 pg/mL | 14209.8 | 13873.4 pg/ml (2×) and 14882.6 pg/ml | significantly reduced | 2239.1 pg/mL and 2317.3 pg/mL and 3058.1 pg/mL | 58.0 and 59.0 and 68.5 | 61.8 | 2538.2 | 2004.2 pg/ml and 2239.1 pg/ml (2×) | 55.0 and 58.0 (2×) | 57.0 | IL-2 Concentration, Mean (IL-2; [8]): 2160.8 pg/mL; IL-2 Concentration, individual wells (IL-2; [9]): 2082.5 pg/mL and 2317.3 pg/mL and 2121.7 pg/mL; IL-2 MFI, individual wells (IL-2; [9]): 56.0 and 59.0 and 56.5; IL-2 MFI, Mean (IL-2; [9]): 57.2; IL-2 Concentration, Mean (IL-2; [9]): 2173.8 pg/mL; IL-2 Concentration, individual wells (IL-2; [10]): 2785.6 pg/mL and 2395.5 pg/mL and 2473.6 pg/mL; IL-2 MFI, individual wells (IL-2; [10]): 65.0 and 60.0 and 61.0; IL-2 MFI, Mean (IL-2; [10]): 62.0; IL-2 Concentration, Mean (IL-2; [10]): 2551.6 pg/mL; IL-2 Concentration, individual wells (IL-2; [11]): 2551.7 pg/mL and 2395.5 pg/mL and 2239.1 pg/mL; IL-2 MFI, individual wells (IL-2; [11]): 62.0 and 60.0 and 58.0; IL-2 MFI, Mean (IL-2; [11]): 60.0; IL-2 Concentration, Mean (IL-2; [11]): 2395.4 pg/mL; IL-2 Concentration, individual wells (IL-2; [12]): 2004.2 pg/mL and 2082.5 pg/mL and 2239.1 pg/mL; IL-2 MFI, individual wells (IL-2; [12]): 55.0 and 56.0 and 58.0; IL-2 MFI, Mean (IL-2; [12]): 56.3; IL-2 Concentration, Mean (IL-2; [12]): 2108.6 pg/mL; LPS-induced IL-2 (in words) (IL-2): significantly reduced
